In PubChem BioAssay AID248 (DTP/NCI, 2004):
Values joined by “and” are separate entries in the source; they are usually repeats but may differ in a detail not shown here. Equal values may be shown once. Toxic doses and inconclusive results are not listed. Cut-off read from the data, not from the text of the source: active = T/C of 150% or more; inactive = T/C below 125%.

System: L1210 leukemia ip in BDF1 mice, survival T/C
Assay: NCI In Vivo Anticancer Drug Screen. Data for tumor model L1210 Leukemia (intraperitoneal) in B6D2F1 (BDF1) mice
Conditions: endpoint: mean survival time, higher = longer survival
Method in brief: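 Transplanted-tumor mice were given test agent; controls received vehicle only. Survival readings from the two groups were divided (treated over control).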

[1] = dose: 100.0 mg/kg/injection, schedule: Q04DX003 (ip), vehicle: Klucel (hydroxypropylcellulose) (HPC)
[2] = dose: 200.0 mg/kg/injection, schedule: Q04DX003 (ip), vehicle: Klucel (hydroxypropylcellulose) (HPC)
[3] = dose: 400.0 mg/kg/injection, schedule: Q04DX003 (ip), vehicle: Klucel (hydroxypropylcellulose) (HPC)
[4] = dose: 50.0 mg/kg/injection, schedule: Q01DX009 (ip), vehicle: saline with Tween-80
[5] = dose: 100.0 mg/kg/injection, schedule: Q01DX009 (ip), vehicle: saline with Tween-80
[6] = dose: 200.0 mg/kg/injection, schedule: Q01DX009 (ip), vehicle: saline with Tween-80
[7] = dose: 100.0 mg/kg/injection, schedule: Q04DX003 (ip), vehicle: saline with Tween-80
[8] = dose: 200.0 mg/kg/injection, schedule: Q04DX003 (ip), vehicle: saline with Tween-80
[9] = dose: 400.0 mg/kg/injection, schedule: Q04DX003 (ip), vehicle: saline with Tween-80
[10] = dose: 200.0 mg/kg/injection, schedule: Q04DX003 (ip), vehicle: saline
[11] = dose: 400.0 mg/kg/injection, schedule: Q04DX003 (ip), vehicle: saline
[12] = dose: 100.0 mg/kg/injection, schedule: Q01DX009 (ip), vehicle: Klucel (hydroxypropylcellulose) (HPC)
[13] = dose: 200.0 mg/kg/injection, schedule: Q01DX009 (ip), vehicle: Klucel (hydroxypropylcellulose) (HPC)
[14] = dose: 400.0 mg/kg/injection, schedule: Q01DX009 (ip), vehicle: Klucel (hydroxypropylcellulose) (HPC)
[15] = dose: 75.0 mg/kg/injection, schedule: Q04DX003 (ip), vehicle: Klucel (hydroxypropylcellulose) (HPC)
[16] = dose: 150.0 mg/kg/injection, schedule: Q04DX003 (ip), vehicle: Klucel (hydroxypropylcellulose) (HPC)
[17] = dose: 300.0 mg/kg/injection, schedule: Q04DX003 (ip), vehicle: Klucel (hydroxypropylcellulose) (HPC)
[18] = dose: 25.0 mg/kg/injection, schedule: Q01DX009 (ip), vehicle: saline with Tween-80

Measured: T/C

Nc1ncnc(N)c1NC(=O)c1ccc(C(=O)c2ccccc2)cc1
inactive: [1] 100 % of control | [2] 94 % of control | [3] 94 % of control

CC1=C(OCC(C)C)CCCC1=O
inactive: [4] 88 % of control | [5] 96 % of control | [6] 96 % of control

Cc1cc(C)c(C)c(NCCCS(=O)(=O)O)c1C
inactive: [1] 98 % of control | [2] 102 % of control | [3] 100 % of control

CC(=O)Nc1ccc2c(c1)C(NC(=O)/C=C\C(=O)O)c1ccccc1-2 (stereo unspecified)
inactive: [7] 111 % of control | [8] 98 % of control | [9] 107 % of control

COc1cccc(N=Nc2ccc(N(C)C)cc2)c1
inactive: dose: 100.0 mg/kg/injection, schedule: Q01DX001 (ip), vehicle: saline 95 % of control | dose: 200.0 mg/kg/injection, schedule: Q01DX001 (ip), vehicle: saline 95 % of control | dose: 400.0 mg/kg/injection, schedule: Q01DX001 (ip), vehicle: saline 103 % of control

S=P1(c2ccccc2)Nc2ccc(Cl)cc2N1 (stereo unspecified)
inactive: dose: 75.0 mg/kg/injection, schedule: Q04DX002 (ip), vehicle: gum acacia 104 % of control | dose: 150.0 mg/kg/injection, schedule: Q04DX002 (ip), vehicle: gum acacia 104 % of control | dose: 300.0 mg/kg/injection, schedule: Q04DX002 (ip), vehicle: gum acacia 101 % of control

COC(=O)CN(c1c(C)cc(C)c(NS(=O)(=O)c2ccccc2)c1C)S(=O)(=O)c1ccccc1
inactive: dose: 100.0 mg/kg/injection, schedule: Q01DX001 (ip), vehicle: Klucel (hydroxypropylcellulose) (HPC) 92 % of control | dose: 200.0 mg/kg/injection, schedule: Q01DX001 (ip), vehicle: Klucel (hydroxypropylcellulose) (HPC) 96 % of control | dose: 400.0 mg/kg/injection, schedule: Q01DX001 (ip), vehicle: Klucel (hydroxypropylcellulose) (HPC) 97 % of control

O=C(Cl)C(=O)c1c[nH]c2ccccc12
inactive: dose: 100.0 mg/kg/injection, schedule: Q04DX002 (ip), vehicle: Klucel (hydroxypropylcellulose) (HPC) 101 % of control | dose: 200.0 mg/kg/injection, schedule: Q04DX002 (ip), vehicle: Klucel (hydroxypropylcellulose) (HPC) 101 % of control | dose: 400.0 mg/kg/injection, schedule: Q04DX002 (ip), vehicle: Klucel (hydroxypropylcellulose) (HPC) 95 % of control

CC(=O)C(CCC#N)(CCC#N)CCC#N
inactive: dose: 75.0 mg/kg/injection, schedule: Q01DX009 (ip), vehicle: saline 93 % of control | dose: 150.0 mg/kg/injection, schedule: Q01DX009 (ip), vehicle: saline 95 % of control | [10] 102 % of control | dose: 300.0 mg/kg/injection, schedule: Q01DX009 (ip), vehicle: saline 93 % of control | [11] 87 % of control

CC(=O)Nc1ccccc1Cl
inactive: [12] 100 % of control | [13] 105 % of control | [14] 108 % of control

Cc1cc(NCCCN(C)C)c2c(c1N)C(=O)c1ccccc1C2=O
inactive: [1] 88 % of control | [2] 92 % of control | [3] 92 % of control

COc1ccc(C(O)c2ccccn2)cc1 (stereo unspecified)
inactive: [7] 90 % of control | [8] 98 % of control | [9] 95 % of control

COC1=C(N=[N+]=[N-])C(=O)c2ccccc2C1=O
inactive: dose: 6.25 mg/kg/injection, schedule: Q04DX002 (ip), vehicle: saline with Tween-80 104 % of control | dose: 12.5 mg/kg/injection, schedule: Q04DX002 (ip), vehicle: saline with Tween-80 96 % of control

Cn1cnc([N+](=O)[O-])c1SC#N
inactive: dose: 15.0 mg/kg/injection, schedule: Q01DX001 (ip), vehicle: carboxymethylcellulose (CMC) 100 % of control

COc1ncnc2c(C3OC(CO)C(O)C3O)[nH]nc12 (stereo unspecified)
inactive: dose: 100.0 mg/kg/injection, schedule: Q01DX005 (ip), vehicle: saline 103 % of control | dose: 200.0 mg/kg/injection, schedule: Q01DX005 (ip), vehicle: saline 97 % of control

COc1ccc2c(c1)CCC1(C)CC(C)C(=O)C=C21 (stereo unspecified)
inactive: [1] 92 % of control | [2] 91 % of control | [3] 92 % of control

O=c1oc(/C=C/c2ccccc2)nc2cc(Cl)ccc12
inactive: [5] 103 % of control | [6] 101 % of control | dose: 400.0 mg/kg/injection, schedule: Q01DX009 (ip), vehicle: saline with Tween-80 96 % of control

Cc1nc2ccccc2[nH]c1=O
inactive: dose: 75.0 mg/kg/injection, schedule: Q04DX003 (ip), vehicle: saline 96 % of control | dose: 100.0 mg/kg/injection, schedule: Q01DX001 (ip), vehicle: other 97 % of control | dose: 150.0 mg/kg/injection, schedule: Q04DX003 (ip), vehicle: saline 100 % of control | dose: 200.0 mg/kg/injection, schedule: Q01DX001 (ip), vehicle: other 100 % of control | dose: 300.0 mg/kg/injection, schedule: Q04DX003 (ip), vehicle: saline 96 % of control | dose: 400.0 mg/kg/injection, schedule: Q01DX001 (ip), vehicle: other 93 % of control

CSc1ccc(NC(=O)Nc2cc(Cl)c(Cl)cc2C)cc1
inactive: dose: 50.0 mg/kg/injection, schedule: Q01DX009 (ip), vehicle: Klucel (hydroxypropylcellulose) (HPC) 87 % of control | [12] 87 % of control | [13] 86 % of control and 92 % of control | [14] 86 % of control

Cc1cc(C)c(-c2c(C)cc(C)c([N+](=O)[O-])c2C)c(C)c1N
inactive: dose: 75.0 mg/kg/injection, schedule: Q01DX009 (ip), vehicle: Klucel (hydroxypropylcellulose) (HPC) 100 % of control | [15] 98 % of control | dose: 150.0 mg/kg/injection, schedule: Q01DX009 (ip), vehicle: Klucel (hydroxypropylcellulose) (HPC) 105 % of control | [16] 101 % of control | dose: 300.0 mg/kg/injection, schedule: Q01DX009 (ip), vehicle: Klucel (hydroxypropylcellulose) (HPC) 100 % of control | [17] 93 % of control

CCN(CC)CCCNC=O
inactive: dose: 100.0 mg/kg/injection, schedule: Q01DX009 (ip), vehicle: saline 94 % of control | dose: 100.0 mg/kg/injection, schedule: Q04DX003 (ip), vehicle: saline 111 % of control | dose: 200.0 mg/kg/injection, schedule: Q01DX009 (ip), vehicle: saline 94 % of control | [10] 102 % of control | dose: 400.0 mg/kg/injection, schedule: Q01DX009 (ip), vehicle: saline 94 % of control | [11] 108 % of control

O=Cc1nccn1Cc1ccccc1
inactive: [18] 93 % of control | [4] 98 % of control | [5] 100 % of control

c1ccc(C2SCCSCCS2)cc1
inactive: [18] 92 % of control | [4] 86 % of control | [5] 86 % of control | [1] 102 % of control | [2] 100 % of control | [3] 92 % of control

CN(C)N=Nc1ccc(-c2nnco2)cc1
inactive: dose: 100.0 mg/kg/injection, schedule: Q04DX002 (ip), vehicle: saline with Tween-80 110 % of control | dose: 200.0 mg/kg/injection, schedule: Q04DX002 (ip), vehicle: saline with Tween-80 106 % of control | dose: 400.0 mg/kg/injection, schedule: Q04DX002 (ip), vehicle: saline with Tween-80 119 % of control

CC(=O)Nc1ccc(S(=O)(=O)N(CCO)c2ccccc2)cc1
inactive: [1] 97 % of control | [2] 90 % of control | [3] 90 % of control

CS/C(N)=N\S(=O)(=O)c1ccc(NC(C)=O)cc1
inactive: [7] 93 % of control | [8] 90 % of control | [9] 96 % of control

O=C(c1ccccc1)c1ccc(Oc2ccc(C(=O)c3ccccc3)cc2)cc1
inactive: [15] 94 % of control | [1] 101 % of control | [16] 96 % of control | [2] 96 % of control | [17] 107 % of control | [3] 95 % of control

O=C(O)CC(CC(=O)O)n1cccc1
inactive: dose: 75.0 mg/kg/injection, schedule: Q01DX001 (ip), vehicle: acetone 96 % of control | dose: 150.0 mg/kg/injection, schedule: Q01DX001 (ip), vehicle: acetone 91 % of control | dose: 300.0 mg/kg/injection, schedule: Q01DX001 (ip), vehicle: acetone 94 % of control

COc1cc(/C=C2/CCCCC2=O)ccc1O
inactive: dose: 100.0 mg/kg/injection, schedule: Q04DX003 (ip), vehicle: other 93 % of control | dose: 200.0 mg/kg/injection, schedule: Q04DX003 (ip), vehicle: other 100 % of control | dose: 400.0 mg/kg/injection, schedule: Q04DX003 (ip), vehicle: other 94 % of control
